How the values were obtained:
[1] = Water-octanol partition coefficient (log P), shake-flask method with GF-AAS; assay type: physicochemical; conditions: room temperature, 50 μM
Experimental: Those of ordinary skill in the art would be knowledgeable of methods of determining the water-octanol partition coefficient of compounds. For example, the log P of a compound may be obtained using the shake-flask method and graphite furnace atomic absorption spectroscopy (GF-AAS). Briefly, in the shake-flask method, octanol is pre-saturated with water by overnight incubation with shaking of a biphasic mixture of the two at room temperature. A portion of 0.5 mL water containing 50 μM of the given compound is incubated with the pre-saturated octanol (0.5 mL) in a 1.5 mL tube. The tube is shaken at room temperature for 3 hours. The two phases are separated by centrifugation and the osmium content (concentration) in each phase is determined by GFAAS. The log P is then calculated using the formula below: log P=log 10[(concentration of osmium in the octanol layer)/(concentration of osmium in the water layer)].
The log P values were obtained using the shake-flask method and graphite furnace atomic absorption spectroscopy (GF-AAS). Octanol used in this experiment was pre-saturated with water by overnight incubation with shaking of a biphasic mixture of the two at room temperature. A portion of 0.5 mL water containing 50 μM of the given compound was incubated with the pre-saturated octanol (0.5 mL) in a 1.5 mL tube. The tube was shaken at room temperature for 3 h. The two phases were separated by centrifugation and the osmium content (concentration) in each phase was determined by GFAAS. All the experiments were carried out in triplicate. The log P was then calculated using the formula below: Log P=log 10[(conc. of osmium in the octanol layer)/(conc. of osmium in the water layer)].

A2780 (ovarian) = experiment: Cytotoxicity MTT assay; assay type: cell-based, human; conditions: MTT, 72 h
Experimental: (§1) The anti-proliferative properties of 1-4 against a panel of human cancer cell lines were assessed by the MTT [3-(4,5-dimethylthiazol-2-yl)-2,5-diphenyltetrazolium bromide] assay. Cisplatin was included as a control. The IC50 values, concentrations required to induce 50% viability, were derived from dose-response curves and are summarized in Table 1.
(§2) A549 lung adenocarcinoma, HeLa cervical cancer, and MRC5 normal human fetal lung fibroblast cell lines were maintained in Dulbecco's Modified Eagle's Medium (DMEM-low glucose) supplemented with 10% fetal bovine serum and 1% penicillin/streptomycin. The cisplatin-sensitive A2780 ovarian cancer and the cisplatin-resistant A2780/CP70 ovarian cancer cell lines were cultured in RPMI (glutamine free) media supplemented with 10% fetal bovine serum and 1% penicillin/streptomycin. All cells were grown at 310 K in a humidified atmosphere containing 5% CO2.
(§3) The colorimetric MTT assay was used to determine the toxicity of the osmium complexes and cisplatin. Cells (2×10^3) were seeded in each well of a 96-well plate. After incubating the cells overnight, various concentrations of test compound (0.3-100 μM) were added and incubated for 72 h (total volume 200 μL). The test compounds were prepared as 10 mM solutions in DMSO and diluted using media. The final concentration of DMSO in each well was 0.5% and this amount was present in the untreated control as well. Cisplatin was prepared as a 5 mM solution in PBS and diluted further using media. After 72 h, the medium was removed, 200 μL of a 0.4 mg/mL solution of MTT in DMEM or RPMI was added, and the plate was incubated for an additional 1-2 h. The DMEM/MTT or RPMI/MTT mixture was aspirated and 200 μL of DMSO was added to dissolve the resulting purple formazan crystals. The absorbance of the solution wells was read at 550 nm. Absorbance values were normalized to DMSO-containing control wells and plotted as concentration of test compound versus % cell viability. IC50 values were interpolated from the resulting dose dependent curves. The reported IC50 values are the average from at least three independent experiments, each of which consisted of six replicates per concentration level.

A2780/CP70 (ovarian) = experiment: Cytotoxicity MTT assay; assay type: cell-based, human; conditions: 72 h, cisplatin-resistant
Experimental: as §1, §2, §3

A549 (lung) = experiment: Cytotoxicity MTT assay; assay type: cell-based, human; conditions: 72 h
Experimental: as §1, §2, §3

HeLa (cervical) = experiment: Cytotoxicity MTT assay; assay type: cell-based, human; conditions: 72 h
Experimental: as §1, §2, §3

MRC-5 (lung normal) = experiment: Cytotoxicity MTT assay; assay type: cell-based, human; conditions: 72 h
Experimental: as §1, §2, §3

HMLER CSC-depleted = experiment: Cytotoxicity against CSC-depleted breast cancer cells; assay type: cell-based
Description: (§4) Cancer relapse is strongly linked to the existence of CSCs. […] Conventional chemotherapy and radiotherapy are often ineffective against CSCs. Although current therapies effectively reduce tumor mass by destroying the bulk of cancer cells, they are unable to remove CSCs, which persist and generate new tumors, often of a far more aggressive nature. Therefore, in order to improve clinical outcomes, treatments must have the ability to kill the entirety of cancer cells, including CSCs. The osmium compound, described in Formula (I), wherein X^1, X^2, and X^3 were chloride ligands and the bidentate ligand was a 1,10-phenanthroline ligand, was able to kill breast cancer cells (HMLER) enriched with CSCs, 2.3-fold better than CSC-depleted breast cancer cells. […] The selectivity of the osmium compound can be seen in Table 2 as well as FIGS. 17A-B and 18.
as §3

HMLER^tax CSC-enriched = experiment: Cytotoxicity against CSC-enriched breast cancer cells; assay type: cell-based; conditions: for HMLER^tax selectivity: CSC-enriched vs CSC-depleted
Description: as §4, §3

A2780 cells = experiment: Cytotoxicity MTT assay with pathway and cell death inhibitors; assay type: cell-based, human; conditions: salubrinal 10 μM
Experimental: This finding led to the investigation of the possibility that 4 may induce endoplasmic reticulum (ER) stress. Co-administration of 4 and salubrinal (10 μM), a known ER stress inhibitor, reduced the cytotoxicity of 4 in A2780 cells. […] To further validate the ER as the main target for 4, the expression of proteins related to the unfolded protein response (UPR) was monitored. […] ER membrane expansion is widely associated with ER stress. With this fact in mind the ER size of A2780 cells upon incubation with 4 were examined using fluorescence microscopy. Relative to untreated controls (FIG. 3B), cells exposed to 4 (10 μM) for 4 h had 25.1% larger ER coverage (FIG. 3C). The ER size relative to the whole cell of the untreated controls was about 30% and the ER size relative to the whole cell of the treated samples was about 55%.
Having established the intracellular targets of 2 and 4, the role of p53, a cell cycle and apoptosis regulator, in the cellular responses evoked was investigated. […] Therefore, p53 played a fundamental role in coordinating the cellular response to 2-induced DNA damage. […] (FIG. 13). […] To relate p53 to potency, cytotoxicity studies were conducted in the presence of p53 inhibitors pifithrin-α and pifithrin-μ. (both 10 μM). […] The IC50 values of compound 2 in the absence and presence of p53 inhibitor pifithrin-μ after 72 hours incubation was about 2 μM and about 30 μM, respectively.
as §3
For specific pathway and cell death inhibitor assays, inhibitors of p53 (pifithrin-α, 10 μM and pifithrin-μ, 10 μM), ER stress (salubrinal, 10 μM), necrosis (IM-54, 10 μM), and autophagocytosis (chloroquine, 10 μM) were added to cells and incubated for 0-1 h prior to treatment with the test compounds.

OsN(2,2′-bipyridine)Cl3 [Complex 1]
log P (water-octanol coefficient) [1]: 0.71 | IC50 (A2780 (ovarian)): 3.8 ± 0.21 µM | IC50 (A2780/CP70 (ovarian)): 3.94 ± 1.75 µM | IC50 (A549 (lung)): 6.11 ± 0.87 µM | IC50 (HeLa (cervical)): 9.24 ± 0.58 µM | IC50 (MRC-5 (lung normal)): 21.6 ± 4.85 µM

CC1=C[N]2c3c4c(ccc3=C1C)=C(C)C(C)=C[N]4[Os]2(#[N])([Cl])([Cl])[Cl] [Complex 3, OsN(3,4,7,8-tetramethyl-1,10-phenanthroline)Cl3]
log P (water-octanol coefficient) [1]: 1.54 | IC50 (A2780 (ovarian)): 7.97 ± 1.41 µM | IC50 (A2780/CP70 (ovarian)): 3.91 ± 0.26 µM | IC50 (A549 (lung)): 14.9 ± 1.63 µM | IC50 (HeLa (cervical)): 6.34 ± 0.52 µM | IC50 (MRC-5 (lung normal)): 17.2 ± 2.16 µM

abamectin
IC50 (HMLER CSC-depleted): 1450 nM | IC50 (HMLER^tax CSC-enriched): 640 nM | HMLER^tax selectivity (HMLER^tax CSC-enriched): 2.26

O=C1[O][Pt]2([NH][C@@H]3CCCC[C@H]3[NH]2)[O]C1=O [oxaliplatin]
IC50 (HMLER CSC-depleted): 15000 nM | IC50 (HMLER^tax CSC-enriched): 27000 nM | HMLER^tax selectivity (HMLER^tax CSC-enriched): 0.55

CC(=O)[O][Pt]([NH2])([Cl])([Cl])([NH]C1CCCCC1)[O]C(C)=O [satraplatin]
IC50 (HMLER CSC-depleted): 1220 nM | IC50 (HMLER^tax CSC-enriched): 2870 nM | HMLER^tax selectivity (HMLER^tax CSC-enriched): 0.43

N.N.O=C([O-])C1(C(=O)[O-])CCC1.[Pt+2] [carboplatin]
IC50 (HMLER CSC-depleted): 17800 nM | IC50 (HMLER^tax CSC-enriched): 18200 nM | HMLER^tax selectivity (HMLER^tax CSC-enriched): 0.98

CC[C@@H](C(=O)[C@@H](C)[C@@H](O)[C@H](C)[C@@H]1O[C@@H]([C@@H](CC)C(=O)O)CC[C@@H]1C)[C@H]1O[C@]2(C=C[C@@H](O)[C@]3(CC[C@@](C)([C@H]4CC[C@](O)(CC)[C@H](C)O4)O3)O2)[C@H](C)C[C@@H]1C [salinomycin]
IC50 (HMLER CSC-depleted): 490 nM | IC50 (HMLER^tax CSC-enriched): 58 nM | HMLER^tax selectivity (HMLER^tax CSC-enriched): 8.45

N.N.[Cl][Pt][Cl] [cisplatin, reference compound]
IC50 (A2780 (ovarian)): 1.41 ± 0.37 µM | IC50 (A2780/CP70 (ovarian)): 10.3 ± 1.5 µM | IC50 (A549 (lung)): 3.59 ± 0.92 µM | IC50 (HeLa (cervical)): 2.83 ± 0.06 µM | IC50 (MRC-5 (lung normal)): 11.1 ± 1.33 µM | effect of salubrinal on toxicity (A2780 cells): limited effect | IC50 (HMLER CSC-depleted): 1950 nM | IC50 (HMLER^tax CSC-enriched): 2060 nM | HMLER^tax selectivity (HMLER^tax CSC-enriched): 0.95

— patent US10662210B2, “Compositions and methods comprising osmium for the treatment of cancers” (Massachusetts Institute of Technology, priority 2014, dated 2020)
